These results are taken from US12679878B2, “CRF2 receptor agonists and their use in therapy” (SANOFI, priority 2020, dated 2026).

One assay deals with T1, CRF1R receptor (Homo sapiens, UniProt P34998).
T1 construct: host or cells: CHO-K1 clone 2
T1 sequence (P34998 24-415): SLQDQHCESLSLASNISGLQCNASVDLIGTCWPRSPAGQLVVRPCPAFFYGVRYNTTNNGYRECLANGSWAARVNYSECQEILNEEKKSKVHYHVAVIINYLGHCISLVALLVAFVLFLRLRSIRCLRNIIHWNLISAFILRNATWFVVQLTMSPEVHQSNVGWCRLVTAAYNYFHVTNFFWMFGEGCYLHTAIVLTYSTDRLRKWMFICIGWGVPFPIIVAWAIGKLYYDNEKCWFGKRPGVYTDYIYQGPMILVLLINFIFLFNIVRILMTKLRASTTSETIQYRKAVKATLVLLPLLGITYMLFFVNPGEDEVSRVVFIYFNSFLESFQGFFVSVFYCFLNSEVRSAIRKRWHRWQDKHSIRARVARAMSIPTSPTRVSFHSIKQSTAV
Nature of the assay: cAMP activity at anti-target CRF1R, CHO-K1 cell line clone 2 (Example 19.10). The class given is cell-based. As to conditions: CRF1R CHO-K1 clone 2; for EC50: 0% HSA, read-out: EC50 [nM] 0% HSA; for Emax: 100% = Sauvagine at 100 nM. The essentials: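 A CRF1R-overexpressing CHO-K1 line (clone 2) was grown in F12/10% FBS/G418 and frozen in aliquots before use. The cAMP assay followed the preceding procedure, with 100% activation defined by Sauvagine at 100 nM.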

A further assay concerns the target T2, human CRF2α receptor (Homo sapiens, UniProt Q13324).
T2 construct: expressed in transfected cells; host or cells: TeloHEAC
T2 sequence (Q13324 1-411): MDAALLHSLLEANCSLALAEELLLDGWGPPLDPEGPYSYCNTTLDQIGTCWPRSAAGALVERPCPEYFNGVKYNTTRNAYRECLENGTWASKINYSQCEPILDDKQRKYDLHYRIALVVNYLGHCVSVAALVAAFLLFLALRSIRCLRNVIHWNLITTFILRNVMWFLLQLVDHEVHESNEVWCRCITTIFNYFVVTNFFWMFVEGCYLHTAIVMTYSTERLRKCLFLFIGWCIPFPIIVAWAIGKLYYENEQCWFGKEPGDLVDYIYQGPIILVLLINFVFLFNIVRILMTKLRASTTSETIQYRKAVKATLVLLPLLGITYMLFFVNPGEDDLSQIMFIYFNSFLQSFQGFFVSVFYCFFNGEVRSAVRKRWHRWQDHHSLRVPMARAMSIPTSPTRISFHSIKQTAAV
The experiment in a line: cAMP agonism at human CRF2 α receptor in TeloHEAC cells (Example 7). The class given is cell-based. As to conditions: cAMP HTRF, TeloHEAC cells stably expressing human CRF2 α. The essentials: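 Percent activation was referenced to 1000 nM UCN2 (100%), and EC50 values taken as concentrations giving half of maximal response. The read-out was a homogeneous time-resolved fluorescence cAMP kit, fluorescence ratio 665/620 nm. Thawed cells (2000/well) saw compound for 30 min at RT in buffer with 2 mM IBMX and 0%/0.1% HSA.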

[1] abbreviates: 0% HSA, read-out: EC50 [nM], 0% HSA.
Setting [2] is: 0.1% HSA, read-out: EC50 [nM], 0.1% HSA.

Where two headings read alike, the source gives them in different places. Starred links: 1 amine or outer side, 2 acyl side, 3 side chain; linkers in the order of their positions; H or OH if unused. Non-standard residues stand in square brackets, D forms with d. Residues, ends and D or L forms follow the SMILES beside them. Groups on a side chain read outwards from the residue. *: point of attachment. C18 diacid = O=C(O)CCCCCCCCCCCCCCCCC(=O)*; γGlu = O=C(O)[C@H](CCC(=O)[*:2])N[*:1]; AEEA = NCCOCCOCC(=O)O; Aib = CC(C)(N)C(=O)O

`CC[C@H](C)[C@H](N)C(=O)N[C@H](C(=O)N[C@@H](CC(C)C)C(=O)N[C@@H](CO)C(=O)N[C@@H](CC(C)C)C(=O)N[C@@H](CC(=O)O)C(=O)N[C@@H](C(=O)N1CCC[C@H]1C(=O)N[C@H](C(=O)N[C@@H](CCCCN)C(=O)N[C@@H](CC(C)C)C(=O)N[C@@H](CCCCNC(=O)COCCOCCNC(=O)COCCOCCNC(=O)CC[C@H](NC(=O)CCCCCCCCCCCCCCCCC(=O)O)C(=O)O)C(=O)N[C@@H](CCC(N)=O)C(=O)N[C@H](C(=O)N[C@@H](CC(C)C)C(=O)N[C@@H](CC(C)C)C(=O)N[C@@H](CCCCN)C(=O)N[C@@H](CCC(N)=O)C(=O)N[C@@H](CCC(=O)O)C(=O)N[C@@H](CCCNC(=N)N)C(=O)N[C@@H](CCC(N)=O)C(=O)N[C@@H](CCCCN)C(=O)NC(C)(C)C(=O)N[C@@H](CCC(N)=O)C(=O)N[C@@H](CCCNC(=N)N)C(=O)N[C@@H](CCC(N)=O)C(=O)N[C@@H](CCCCN)C(=O)N[C@@H](C)C(=O)N[C@@H](CCC(=O)O)C(=O)N[C@@H](CCCCN)C(=O)N[C@@H](CC(N)=O)C(=O)N[C@@H](CCCCN)C(=O)N[C@@H](CCC(N)=O)C(=O)N[C@H](C(=O)N[C@@H](CC(C)C)C(=O)N[C@@H](C)C(=O)N[C@@H](CCC(N)=O)C(=O)N[C@H](C(N)=O)C(C)C)[C@@H](C)CC)[C@@H](C)CC)[C@@H](C)CC)C(C)C)C(C)C` [compound 118] (H-IVLSLD[dV]PIKLK([AEEA-AEEA-γGlu-C18 diacid])QILLKQERQK[Aib]QRQKAEKNKQILAQV-NH2; N-terminus assumed): the values for the EC50 on CRF1R receptor, on human CRF2α receptor (setting [1]) and on human CRF2α receptor (setting [2]) were > 100 nM, 0.04 nM and 2.13 nM, respectively. Besides, the Emax on CRF1R receptor is 1.5%.
Regarding `CC[C@H](C)[C@H](N)C(=O)N[C@H](C(=O)N[C@@H](CC(C)C)C(=O)N[C@@H](CO)C(=O)N[C@@H](CC(C)C)C(=O)N[C@@H](CC(=O)O)C(=O)N[C@H](C(=O)N1CCC[C@H]1C(=O)N[C@H](C(=O)N[C@@H](CCCCN)C(=O)N[C@@H](CC(C)C)C(=O)N[C@@H](CCCCNC(=O)COCCOCCNC(=O)COCCOCCNC(=O)CC[C@H](NC(=O)CCCCCCCCCCCCCCCCC(=O)O)C(=O)O)C(=O)N[C@@H](CCC(N)=O)C(=O)N[C@H](C(=O)N[C@@H](CC(C)C)C(=O)N[C@@H](CC(C)C)C(=O)N[C@@H](CCCCN)C(=O)N[C@@H](CCC(N)=O)C(=O)N[C@@H](CCC(=O)O)C(=O)N[C@@H](CCCNC(=N)N)C(=O)N[C@@H](CCC(N)=O)C(=O)N[C@@H](CCCCN)C(=O)N[C@@H](CCCCN)C(=O)NC(C)(C)C(=O)N[C@@H](CCCNC(=N)N)C(=O)N[C@@H](CCC(N)=O)C(=O)N[C@@H](CCCCN)C(=O)N[C@@H](C)C(=O)N[C@@H](CCC(=O)O)C(=O)N[C@@H](CCCCN)C(=O)N[C@@H](CC(N)=O)C(=O)N[C@@H](CCCCN)C(=O)N[C@@H](CCC(N)=O)C(=O)N[C@H](C(=O)N[C@@H](CC(C)C)C(=O)N[C@@H](C)C(=O)N[C@@H](CCC(N)=O)C(=O)N[C@H](C(N)=O)C(C)C)[C@@H](C)CC)[C@@H](C)CC)[C@@H](C)CC)C(C)C)C(C)C` [compound 119] (H-IVLSLDVPIKLK([AEEA-AEEA-γGlu-C18 diacid])QILLKQERQKK[Aib]RQKAEKNKQILAQV-NH2), the 50% effective concentration (EC50) at CRF1R receptor was > 100 nM; on human CRF2α receptor (setting [1]), 0.13 nM; on human CRF2α receptor (setting [2]), 4.97 nM. The Emax at CRF1R receptor is 0.4%.
With `CC[C@H](C)[C@H](N)C(=O)N[C@H](C(=O)N[C@@H](CC(C)C)C(=O)N[C@@H](CO)C(=O)N[C@@H](CC(C)C)C(=O)N[C@@H](CC(=O)O)C(=O)N[C@H](C(=O)N1CCC[C@H]1C(=O)N[C@H](C(=O)N[C@@H](CCCCN)C(=O)N[C@@H](CC(C)C)C(=O)N[C@@H](CCCCNC(=O)COCCOCCNC(=O)COCCOCCNC(=O)CC[C@H](NC(=O)CCCCCCCCCCCCCCCCC(=O)O)C(=O)O)C(=O)N[C@@H](CCC(N)=O)C(=O)N[C@H](C(=O)N[C@@H](CC(C)C)C(=O)N[C@@H](CC(C)C)C(=O)N[C@@H](CCCCN)C(=O)N[C@@H](CCC(N)=O)C(=O)N[C@@H](CCC(=O)O)C(=O)N[C@@H](CCCNC(=N)N)C(=O)N[C@@H](CCC(N)=O)C(=O)N[C@@H](CCCCN)C(=O)N[C@@H](CCCCN)C(=O)N[C@@H](CCC(N)=O)C(=O)N[C@@H](CCCNC(=N)N)C(=O)N[C@@H](CCC(=O)O)C(=O)N[C@@H](CCCCN)C(=O)N[C@@H](C)C(=O)N[C@@H](CCC(=O)O)C(=O)N[C@@H](CCCCN)C(=O)N[C@@H](CC(N)=O)C(=O)N[C@@H](CCCCN)C(=O)N[C@@H](CCC(N)=O)C(=O)N[C@H](C(=O)N[C@@H](CC(C)C)C(=O)N[C@@H](C)C(=O)N[C@@H](CCC(N)=O)C(=O)N[C@H](C(N)=O)C(C)C)[C@@H](C)CC)[C@@H](C)CC)[C@@H](C)CC)C(C)C)C(C)C` [compound 121] (H-IVLSLDVPIKLK([AEEA-AEEA-γGlu-C18 diacid])QILLKQERQKKQREKAEKNKQILAQV-NH2), the concentration for a half-maximal effect (EC50) at CRF1R receptor was > 100 nM; on human CRF2α receptor (setting [1]), 0.73 nM; on human CRF2α receptor (setting [2]) it was 41.3 nM. Besides, at CRF1R receptor, the Emax is -1.1%.
For `CC[C@H](C)[C@H](N)C(=O)N[C@H](C(=O)N[C@@H](CC(C)C)C(=O)N[C@@H](CO)C(=O)N[C@@H](CC(C)C)C(=O)N[C@@H](CC(=O)O)C(=O)N[C@H](C(=O)N1CCC[C@H]1C(=O)N[C@H](C(=O)N[C@@H](CCCCN)C(=O)N[C@@H](CC(C)C)C(=O)N[C@@H](CCCCNC(=O)COCCOCCNC(=O)COCCOCCNC(=O)CC[C@H](NC(=O)CCCCCCCCCCCCCCCCC(=O)O)C(=O)O)C(=O)N[C@@H](CCC(N)=O)C(=O)N[C@H](C(=O)N[C@@H](CC(C)C)C(=O)N[C@@H](CC(C)C)C(=O)N[C@@H](CCCCN)C(=O)N[C@@H](CCC(N)=O)C(=O)N[C@@H](CCC(=O)O)C(=O)N[C@@H](CCCNC(=N)N)C(=O)N[C@@H](CCC(N)=O)C(=O)N[C@@H](CCCCN)C(=O)N[C@@H](CCCCN)C(=O)N[C@@H](CCC(N)=O)C(=O)N[C@@H](CCCNC(=N)N)C(=O)N[C@@H](CCC(N)=O)C(=O)N[C@@H](CCC(N)=O)C(=O)N[C@@H](C)C(=O)N[C@@H](CCC(=O)O)C(=O)N[C@@H](CCCCN)C(=O)N[C@@H](CC(N)=O)C(=O)N[C@@H](CCCCN)C(=O)N[C@@H](CCC(N)=O)C(=O)N[C@H](C(=O)N[C@@H](CC(C)C)C(=O)N[C@@H](C)C(=O)N[C@@H](CCC(N)=O)C(=O)N[C@H](C(N)=O)C(C)C)[C@@H](C)CC)[C@@H](C)CC)[C@@H](C)CC)C(C)C)C(C)C` [compound 122] (H-IVLSLDVPIKLK([AEEA-AEEA-γGlu-C18 diacid])QILLKQERQKKQRQQAEKNKQILAQV-NH2; N-terminus assumed), the concentration giving a half-maximal response (EC50) at CRF1R receptor is > 100 nM; on human CRF2α receptor (setting [1]) it was 0.04 nM; on human CRF2α receptor (setting [2]), 1.71 nM. The Emax at CRF1R receptor came out at 6.9%.
As for `CC[C@H](C)[C@H](N)C(=O)N[C@H](C(=O)N[C@@H](CC(C)C)C(=O)N[C@@H](CO)C(=O)N[C@@H](CC(C)C)C(=O)N[C@@H](CC(=O)O)C(=O)N[C@H](C(=O)N1CCC[C@H]1C(=O)N[C@H](C(=O)N[C@@H](CCCCN)C(=O)N[C@@H](CC(C)C)C(=O)N[C@@H](CCCCNC(=O)COCCOCCNC(=O)COCCOCCNC(=O)CC[C@H](NC(=O)CCCCCCCCCCCCCCCCC(=O)O)C(=O)O)C(=O)N[C@@H](CCC(N)=O)C(=O)N[C@H](C(=O)N[C@@H](CC(C)C)C(=O)N[C@@H](CC(C)C)C(=O)N[C@@H](CCC(=O)O)C(=O)N[C@@H](CCC(N)=O)C(=O)N[C@@H](C)C(=O)N[C@@H](CCCNC(=N)N)C(=O)N[C@@H](CCC(N)=O)C(=O)N[C@@H](CCCCN)C(=O)NC(C)(C)C(=O)N[C@@H](CCC(N)=O)C(=O)N[C@@H](CCCNC(=N)N)C(=O)N[C@@H](C)C(=O)N[C@@H](CCC(N)=O)C(=O)N[C@@H](C)C(=O)N[C@@H](CCC(=O)O)C(=O)N[C@@H](CCCCN)C(=O)N[C@@H](CC(N)=O)C(=O)N[C@@H](CCCCN)C(=O)N[C@@H](CCCNC(=N)N)C(=O)N[C@H](C(=O)N[C@@H](CC(C)C)C(=O)N[C@@H](CCC(=O)O)C(=O)N[C@@H](CCCNC(=N)N)C(=O)N[C@H](C(N)=O)C(C)C)[C@@H](C)CC)[C@@H](C)CC)[C@@H](C)CC)C(C)C)C(C)C` [compound 123] (H-IVLSLDVPIKLK([AEEA-AEEA-γGlu-C18 diacid])QILLEQARQK[Aib]QRAQAEKNKRILERV-NH2; N-terminus assumed), the figures for the EC50 at CRF1R receptor, at human CRF2α receptor (setting [1]) and at human CRF2α receptor (setting [2]) were > 100 nM, 0.33 nM and 9.74 nM, respectively. Besides, on CRF1R receptor, the Emax was 9%.
